Measurements: patent EP1263420B1 (priority 2000, dated 2001)
Values joined by “and” are separate entries in the source; they are usually repeats but may differ in a detail not shown here. Equal entries are not always repeated. “Also recorded” adds a separate entry of the source.

Experiments:
TGase II [1] = test: TGase II activity in cultured MCF-7 cells; format: cell-based, human
Experimental: MCF-7 cells were seeded at a density of 1.5 x 10^5 cells/ml medium (500ml DMEM + 56.2ml FBS + 5.6m1 AB/AM) in 6cm diameter dishes for 24 hours and treated with either DMSO, RA, or 13-cis RA at 10^-6 M and grown to confluence (about 72 hours). Cells were harvested and Transglutaminase II activity was measured as described below. Nebulizer solution, inhalation procedures, details of animal housing are described below.
Cultured cells were placed in 100 µl scraping buffer [A: 2800µl (400µl 0.5M Na-Phosphate, 500µl 0.01M EDTA, 100µl 1M DTT , 9ml PBS total 10ml) + B:700µl (10µl 20mg/ml PMSF 790µl PBS total 800µl)] for each dish. Cells were broken by a sonicator and kept in ice until used. TGase II assay was conducted as described below and previously {8217}.
(§1) Enzyme assay mixtures were prepared by adding 80µl of SUBSTRATE mixture (322.8µl H2O, 120µl 0.5M NaBorate, 60µl 0.01M EDTA, 60µl 0.1M CaCl2, 6µl 1M DTT, 240µl dimethyl casein, 30µl Triton X-100, 1.2µl [^3H]-Putrescine, 120µl Putrescine) to 20µl sample, 20µl scraping buffer for blank control , 20 µl (18µl scraping buffer + 2µl TGase II) for positive control. Samples were mixed in 15ml tubes, the tubes were shaken before putting them into a 28°C water bath for 30 minutes. Reactions were slowed down in an ice bath. 80µl of the incubation mixture was adsorbed onto paper disks. These were immediately dropped into cold 10% TCA (0.1% Putrescine) and washed with agitation for 7 minutes, followed by 2 additional washes with 5% TCA (0.05% putrescine) for 5~7 minutes, and once more with cold (-20°C) 95% ethanol for 5 minutes. Paper disks were dried and placed into 5ml Aquasol, and counted in a Liquid Scintillation Counter. Protein concentration determination was conducted by the Bradford method.

TGase II [2] = test: TGase II assay of rat liver tissue after inhaled 13-cis RA (experiment B); format: in vivo; details: for TGase II assay / TGase II assay DPM/µg protein: rat liver
Experimental: Male rats (n=23) (Sprague-Dawley from Charles River) were divided into six experimental groups and were given varying amounts of 13-cis RA through an inhalant apparatus once daily for different times each day for 14 days. The experimental groups were as follows (Table 1) :1.Vehicle control : rats (3) inhaled vehicle for 240 minutes; 2. Low dose 13-cis RA: rats (4) inhaled a solution containing 13-cis RA at a concentration of 62.2µg/liter (inhaled dose 115.0µg/kg body weight) in 5 minutes; 3. Low-Middle dose 13-cis RA : rats (4) inhaled a solution containing 13-cis RA at a concentration of 62.2µg/liter (inhaled dose 334.4µg/kg body weight) in 15 minutes; 4.Middle dose 13-cis RA: rats (4) inhaled a solution containing 13-cis RA at a concentration of 62.2µg/liter (inhaled dose 1012.3µg/kg body weight) in 45 minutes; 5. Middle-High dose 13-cis RA : rats (4) inhaled a solution containing 13-cis RA at a concentration of 62.2µg/liter (inhaled dose 2843.4µg/kg body weight) in 120 minutes; 6. High dose 13-cis RA : rats (4) inhaled a solution containing 13-cis RA at a concentration of 62.2µg/liter (inhaled dose 5935.6µg/kg body weight) in 240 minutes.
For liver tissue, a piece of approximately 100-400mg was used. Tissue was diced in small pieces and homogenized in approximately 2 volumes of scraping buffer for 2-3 minutes at 4°C. Samples were centrifuged at 14,000xg for 30 minutes at 4°C. The supernatant was removed and kept in ice until used.
as §1

[3] = Body weight, mortality and toxicity of A/J mice exposed to isotretinoin aerosols; format: in vivo
Experimental: Mice were injected with one of three carcinogens and were exposed by inhalation in groups of 21 to three graded concentrations of isotretinoin or vehicle for 10 (urethane-treated mice) or 16 (NNK- and BaP-treated mice) weeks.
Male A/J mice (Jackson Laboratories) 6-8 weeks old were quarantined a minimum of 7 days. […] At 9-10 weeks of age, the mice were administered single 0.2 ml doses (20 mg urethane in saline, 0.6 mg of NNK in saline, or 2 mg of BaP in tricaprylin) by intraperitoneal injection. Daily 45-min exposures to isotretinoin aerosol or vehicle were started the next day.
Solutions were aerosolized using a Pari LC-plus nebulizer (Pari, Richmond, VA). Animals were exposed in nose-only exposure units designed to provide a fresh supply of the test atmosphere to each animal, independent from other animals. […] The units consisted of multi-tier modular sections, each tier containing eight exposure ports located peripherally around a central delivery plenum. During exposures, animals were restrained in unstoppered polycarbonate tubes (C&H Technologies, Westwood, NJ) through which a flow of aerosol, 350-500 ml/min per mouse, passed from the chamber. The tubes were tapered on one end to approximately fit the shape of the animal's head and the diameter of the cylindrical portion of the cone was such that the animals could not turn in the cones. Each cone was fastened to the inhalation chamber with the nose portion of the cone protruding through a gasket into the chamber, permitting the animal to breathe the test or control atmosphere emanating from within the central plenum.

Lung Tumorigenesis = test: Lung tumorigenesis inhibition by inhaled isotretinoin in carcinogen-treated A/J mice; format: in vivo; details: for reductions of tumor multiplicity (non-significant): low dose; for reductions in multiplicity of tumor nodules: mid isotretinoin dose
Description: The A/J mouse is a well-established animal model for preclinical chemoprevention studies. This strain has a hereditary predisposition for lung cancer, the so-called pulmonary adenoma susceptibility (Pas) genes. A strong candidate for one of these genes, Pas-1, is the K-ras protooncogene. Carcinogenesis in this model with NNK as the inciting agent has been studied so that the times required to develop hyperplastic areas, adenomas, and carcinomas are well known. In addition, the timing of molecular changes associated with carcinogenesis has been studied and are similar to those in humans. In both species, K-ras mutations are common early events.
Within 24 h of the last inhalation exposure, animals were euthanized by intraperitoneal injection of pentobarbital and their lungs were removed and fixed in Bouin's solution or flash frozen for RAR determination. The lungs were evaluated in a blinded fashion so that neither carcinogen nor isotretinoin dose levels were known to the evaluator, who visually counted hyperplastic areas and adenomas on the lung pleural surface as previously described The significance of the differences between the mean tumor incidence of the treatment and the control groups was determined using the Mann-Whitney Rank Sum test (Statmost TM, DataMost Corp., Sandy, Utah).

lung metaplasia = details: Oral doses of I mg/kg, smokers; cited from earlier work
[4] = High: 240 minutes daily 14 Days, 1872µg/kg total deposited dose
[5] = Low-Middle: 15 minutes daily 14 Days, 117µg/kg total deposited dose
[6] = Middle-High: 120 minutes daily 14 Days, 936µg/kg total deposited dose
[7] = Middle: 45 minutes daily 14 Days, 351µg/kg total deposited dose

Q: With `CC1=C(/C=C/C(C)=C/C=C/C(C)=C\C(=O)O)C(C)(C)CCC1` [13-cis RA, 13-cis-Retinoic Acid] as the molecule, how does the fold induction at 1 µM (TGase II [1]; Homo sapiens, MCF7, 72 h, read-out: stimulating TGase II activity) read?
A: Its fold induction at 1 µM is 6.1.

Q: What about the “TGase II Activity” value (TGase II [1]; MCF-7 cells, 10^-6 M, 72 hours, DMSO control 0.183) of the same molecule?
A: The value was 1.118 +/- 0.016 picomoles/µg protein/30 minutes.

Q: What about the “effect on liver TGase II activity” value (TGase II [2]; inhaled, up to 5.93mg/kg of inhaled dose) of the same molecule?
A: The value was “no significant effect”.

Q: What about the “TGase II assay” value (TGase II [2]; [4]) of the same molecule?
A: Its value is 0.271 +/- 0.015 picomoles/µg protein/30 min and 0.271 ± 0.015 picomoles/µg protein/30 min.

Q: What about the “TGase II assay DPM/µg protein” value (TGase II [2]; [4]) of the same molecule?
A: Its value is 19719 DPM/µg protein.

Q: And the “TGase II assay” value (TGase II [2]; [5])?
A: The value was 0.273 +/- 0.018 picomoles/µg protein/30 min and 0.273 ± 0.018 picomoles/µg protein/30 min.

Q: And the “TGase II assay DPM/µg protein” value (TGase II [2]; [5])?
A: The value was 21448 DPM/µg protein.

Q: What about the “TGase II assay DPM/µg protein” value (TGase II [2]; Low: 5 minutes daily 14 Days, 39µg/kg total deposited dose) of the same molecule?
A: Its value is 22705 DPM/µg protein.

Q: What about the “TGase II assay” value (TGase II [2]; Low: 5 minutes daily 14 Days, 39µg/kg total deposited dose, vehicle 0.260) of the same molecule?
A: Its value is 0.289 +/- 0.007 picomoles/µg protein/30 min and 0.289 ± 0.007 picomoles/µg protein/30 min.

Q: And the “TGase II assay” value (TGase II [2]; [6])?
A: Its value is 0.269 +/- 0.015 picomoles/µg protein/30 min and 0.269 ± 0.015 picomoles/µg protein/30 min.

Q: And the “TGase II assay DPM/µg protein” value (TGase II [2]; [6])?
A: Its value is 20348 DPM/µg protein.

Q: What about the “TGase II assay” value (TGase II [2]; [7]) of the same molecule?
A: The value was 0.313 +/- 0.025 picomoles/µg protein/30 min and 0.313 ± 0.025 picomoles/µg protein/30 min.

Q: What about the “TGase II assay DPM/µg protein” value (TGase II [2]; [7]) of the same molecule?
A: The value was 24590 DPM/µg protein.

Q: And the “tolerated until (mice began losing weight)” value ([3]; mid dose)?
A: Its value is ~ 12 wks.

Q: And the “weights below those of vehicle controls” value ([3]; mid dose, NNK- and BaP-treated mice, end of exposure)?
A: The value was 11%.

Q: What about the mortality ([3]; mouse, in vivo, inhaled or intranasal, 0.081 mg/kg, mid dose (2/63), read-out: mice died before the end of exposure) of the same molecule?
A: Its mortality is 3%.

Q: And the mortality at 336 h ([3]; mouse, in vivo, inhaled or intranasal, 2 mg/kg, high dose, daily exposures for the first two weeks, read-out: mice died)?
A: Its mortality at 336 h is about 35%.

Q: And the “reductions of tumor multiplicity (non-significant)” value (Lung Tumorigenesis; BaP treated mice, p<0.13)?
A: The value was 30%.

Q: What about the “reductions of tumor multiplicity (non-significant)” value (Lung Tumorigenesis; NNK treated mice, p<0.30) of the same molecule?
A: The value was 16%.

Q: What about the “effect on numbers of tumors” value (Lung Tumorigenesis; low isotretinoin dose) of the same molecule?
A: The value was “not affected by treatment at the 95% confidence level; also recorded: not significantly effective”.

Q: What about the “reductions in multiplicity of tumor nodules” value (Lung Tumorigenesis; BaP-treated mice) of the same molecule?
A: The value was 67%.

Q: And the “reductions in multiplicity of tumor nodules” value (Lung Tumorigenesis; NNK-treated mice)?
A: Its value is 88%.

Q: And the “reversal of lung metaplasia” value (lung metaplasia)?
A: The value was “failed even to reverse lung metaplasia”.
